Data published in patent publication US4975450A, “Antidiarrheal” (Slovenska Akademia Vied, priority 1987, dated 1990).
Like-named read-outs stand apart in the source and are kept apart here.

Legend:
calves = assay: reduction of diarrhea occurrence in new-born calves; assay type: in vivo
Description: With the referenoe individuals (n=66) diarrhea has occurred with about 80% thereof. The medicament of the invention, if administered for 2 to 3 days in a 10 mg daily dose, reduced the diarrhea ocourrence by 40-50%, and with a 20 mg d aily dose during 3 days of administration even less than 4% (P<0.01). In the control group of calves to which no medicament was administered, a multiple mortality has been observed.

mice [1] = assay: castor oil-provoked diarrhea in mice; assay type: in vivo; details: 20 mg/kg, 30 minutes before castor oil; control 91.2±4.4 minutes
[2] = system: intestinal passage of carbo adsorbens; assay: intestinal passage of carbo adsorbens, mice; assay type: in vivo; details: for intestinal passage of carbo adsorbens, complete intestine: atropin 5 mg/kg, reference 75.0 ± 1.9
Description: (§1) The active substance in 20 mg dose per one kg, if administered 30 minutes before administering castor oil, has extended the latent period up to the beginning of the diarrhea from 91.2±4.4 minutes to 127.3±6.3 minutes. […] (Table 1).
(§2) TABLE 1 - Influence of pharmaceutical substances on the intestinal passage of carbo adsorbens (100% is the complete intestine length): […]

[3] = system: intestinal passage of carbo adsorbens; assay: intestinal passage of carbo adsorbens, rats; assay type: in vivo; details: for intestinal passage of carbo adsorbens, small intestines: 100% is the complete intestine length, substance 20 mg/kg, atropin 5 mg/kg, reference 58.7 ± 2.5
Description: as §1, §2

[4] = retention of stomach content; assay type: in vivo; details: active substance 10-20 mg/kg; atropin dose not stated
rats = assay: one month toxicity study of rats; assay type: in vivo
dogs (beagle) = assay: chronic six months toxicity study on dogs; assay type: in vivo
mice [5] = details: mouse, in vivo
rat = details: in vivo
mice [6] = details: mouse, in vivo; remark: listed apart in the source
adenylate cyclase = details: Hynie et al 1986; cited from earlier work
[7] = V. Nosalova et al 1986; cited from earlier work
[8] = cited from earlier work
in vivo [9] = details: mouse
in vivo [10] = details: rat
in vivo [11] = details: rabbit
in vivo [12] = details: guinea pig
mice [13] = assay: teratological and embryotoxic experiments on mice
Salmonella typhimurium = assay: mutation tests and reparative tests, Salmonella typhimurium
[14] = 100% is the complete intestine length, substance 20 mg/kg

Compound: CCCCCOc1cccc(NC(=O)O[C@@H]2CCCC[C@H]2N2CCCC2)c1 (relative stereo) [substance of the formula, (±)-trans-2(1-pyrrolidinyl) cyclohexylester of 3-(n)-pentyloxycarbanilic acid]
- mortality of untreated control calves compared with treated calves (in words) (calves; bovine, in vivo): a statistically considerably higher number perish
- reduction of diarrhea occurrence (calves; calves, average 40 kg, 10 mg daily dose, 2 to 3 days, reference about 80% (n=66)): 40-50%
- diarrhea occurrence (printed as: reduced ... even less than 4%) (calves; calves, average 40 kg, 20 mg daily dose, 3 days, P<0.01, reference about 80% (n=66)): less than 4%
- reduction of diarrhea (in words) (calves; calves, 10 and 20 mg per diem, one to three days after birth): significant reduction of diarrhea with involved animals depending upon the dose applied
- latent period up to the beginning of the diarrhea (mice [1]): 127.3 ± 6.3 min
- influence on passage of intestine content (in words) [2]: does not significantly influence the passage of intestine content
- intestinal passage of carbo adsorbens, complete intestine [2, 14]: 80.3 ± 1.2%
- intestinal passage of carbo adsorbens, small intestine ([2]; 100% is the complete intestine length, substance 20 mg/kg, reference 91.7 ± 2.2): 96.6 ± 0.95%
- influence on passage of intestine content (in words) [3]: does not significantly influence the passage of intestine content
- intestinal passage of carbo adsorbens, small intestines [3]: 60.1 ± 1.5%
- retention of stomach content [4]: unchanged
- hematological, biochemical and morphological indices or animal weight (rats; p.o. 0.1, 1, 10 mg/kg): neither hematological, biochemical and morphological indices or the animal weight have not been considerably influenced
- influence on behavior (rats; p.o. 0.1, 1, 10 mg/kg): has not shown any influence on the behavior of animals
- increase in weight (rats; p.o., two highest doses): in some cases lower than average
- changes in weight of dogs (dogs (beagle); both sexes, six months, p.o. 2, 10, 30 mg/kg): has not exhibited with doses of 2; 10; 30 mg/kg any extensive changes in the weight of dogs
- harmfulness of the substance in the six months period (dogs (beagle); p.o., dose range up to 2 mg/kg): no proofs about any harmfulness of the substance
- toxicity at the high doses (weight, behavior, mortality) (dogs (beagle); six months, p.o., two highest doses): a decrease in weight, defective behavior and mortality have occurred
- toxic effect in hematological, biochemical and morphological indices (dogs (beagle); six months, p.o., two lower doses): No toxic effect in hematological, biochemical and morphological indices has been observed with the two lower doses
- heart activity and psychomotoric changes (dogs (beagle); six months, p.o., two lower doses (exception)): minor changes in the heart activity, and particularly by influencing the pulse conductivity and further by psychomotoric unrest
- LD50 (mice [5]; ip): 59 mg/kg
- LD50 (mice [5]; po): 840 mg/kg
- LD50 (mice [5]; sc): 128 mg/kg
- LD50 (rat; ip): 75 mg/kg
- LD50 (rat; iv): 13.8 mg/kg
- LD50 (rat; po): 1030 mg/kg
- LD50 (rat; sc): 283 mg/kg
- occurrence of skeletal abnormalities (mice [6]): the same as in the reference group
- mutation changes in reparative tests (Escherichia coli): have not been observed
- qualitative or quantitative mutations (Escherichia coli): have not been observed
- reduction of adenylate cyclase activity (adenylate cyclase): a significant reduction of adenylate cyclase activity
- antiulcerose / gastric cytoprotective effect [7]: antiulcerose effects with a marked gastric cytoprotective effect
- locally anaesthetic effect ([8]; L. Benes et al 1969): exhibits the well-known locally anaesthetic effects
- locally anaesthetic and spasmolytic effects ([8]; P. Svec et al 1976): locally anaesthetic and spasmolytic effects
- locally anaesthetic activity at decreased pH ([8]; media with decreased pH value at the acid side, S. Stole et al 1978): maintenance of its locally anaesthetic activity even in media with decreased pH value at the acid side
- LD50 (in vivo [9]; ip): 56 mg/kg
- LD50 (in vivo [9]; iv): 10.3 mg/kg
- LD50 (in vivo [9]; po): 790 mg/kg
- LD50 (in vivo [9]; sc): 122 mg/kg
- LD50 (in vivo [10]; ip): 70 mg/kg
- LD50 (in vivo [10]; iv): 11.8 mg/kg
- LD50 (in vivo [10]; po): 1110 mg/kg
- LD50 (in vivo [10]; sc): 295 mg/kg
- LD50 (in vivo [11]; ip): 46.5 mg/kg
- LD50 (in vivo [11]; iv): 2.92 mg/kg
- LD50 (in vivo [12]; iv): 7.8 mg/kg
- LD50 (in vivo [12]; sc): 73.2 mg/kg
- fetal weight, implantates, placenta and amniotic liquor (mice [13]; 0.21, 2.1, 8.4, 21, 42, 84 mg/kg): no changes in the amounts of fetal weight implantates, placenta and amniotio liquor were found
- fetuses with palate fissure (mice [13]; only at highest dose of 84 mg/kg): less than 10%
- mutation changes in reparative tests (Salmonella typhimurium): have not been observed
- qualitative or quantitative mutations (Salmonella typhimurium): have not been observed

Compound: CN1C2CCC1CC(OC(=O)C(CO)c1ccccc1)C2 (stereo not shown) [atropin, reference compound]
- intestinal passage of carbo adsorbens, complete intestine [2, 14]: 51.4 ± 2.6%
- intestinal passage of carbo adsorbens, small intestines [3]: 46.3 ± 2.5%
